Results from PMC8050276, “Estradiol analogs attenuate autophagy, cell migration and invasion by direct and selective inhibition of TRPML1, independent of estrogen receptors” (Scientific Reports, 2021).
Several values for one entry are separate records, joined by “and”; a condition that tells them apart may be missing. Equal entries are not always repeated. Entries after “also recorded” stand apart in the source; their conditions may differ. Where two headings read alike, the source gives them in different places.

Tests used:
Format in all cases: cell-based
hTRPML2-YFP = target: T1, hTRPML2-YFP (Homo sapiens, UniProt Q8IZK6); assay: Fluo-4 Ca2+ influx assay, HEK293 stably expressing hTRPML2-YFP, activated with ML-SA1
T1 construct: expressed in transfected cells
T1 sequence (Q8IZK6 1-566): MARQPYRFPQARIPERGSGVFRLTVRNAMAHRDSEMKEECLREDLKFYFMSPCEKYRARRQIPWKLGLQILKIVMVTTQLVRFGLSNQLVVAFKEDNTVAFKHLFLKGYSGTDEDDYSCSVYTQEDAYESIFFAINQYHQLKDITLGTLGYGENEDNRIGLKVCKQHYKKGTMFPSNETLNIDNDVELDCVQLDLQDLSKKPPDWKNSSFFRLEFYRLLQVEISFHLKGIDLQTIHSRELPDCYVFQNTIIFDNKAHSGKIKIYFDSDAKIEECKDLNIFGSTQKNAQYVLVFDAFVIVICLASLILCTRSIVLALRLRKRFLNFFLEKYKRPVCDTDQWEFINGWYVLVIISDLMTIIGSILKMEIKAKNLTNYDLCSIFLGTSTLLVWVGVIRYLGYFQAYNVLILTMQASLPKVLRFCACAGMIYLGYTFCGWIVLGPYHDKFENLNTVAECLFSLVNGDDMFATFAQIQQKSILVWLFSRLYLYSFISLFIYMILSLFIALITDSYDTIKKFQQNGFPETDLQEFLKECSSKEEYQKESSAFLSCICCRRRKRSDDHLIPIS

hTPC2L11A/L12A-RFP = target: T2, hTPC2L11A/L12A-RFP (Homo sapiens, UniProt Q8NHX9, L11A/L12A); assay: Single cell Fura-2 calcium imaging, HEK293 stably expressing hTPC2L11A/L12A-RFP; conditions: compound alone or 10 µM after TPC2-A1-N (10 µM)
T2 construct: expressed in transfected cells
Protocol: Single cell Ca^2+ imaging experiments were performed using Fura-2 as previously described. HEK293 cells stably expressing hTRPML1∆NC-YFP, hTRPML2-YFP, hTPPML3-YFP or hTPC2L11A/L12A-RFP (22, 24) were cultured at 37 °C with 5% of CO2 in Dulbecco’s modified Eagle medium (Thermo Fisher), supplemented with 10% fetal bovine serum, 100 U/mL penicillin, and 0.1 mg/mL streptomycin. Cells were plated onto poly-L-lysine (sigma)-coated glass coverslips and grown for 2–3 days. For Ca^2+ imaging experiments cells were loaded for 1 h at room temperature with Fura-2 AM (4.0 µM) and 0.005% (v/v) pluronic acid (both from Thermo Fisher) in HEPES-buffered solution (HBS) comprising 138 mM NaCl, 6 mM KCl, 2 mM MgCl2, 2 mM CaCl2, 10 mM HEPES, and 5.5 mM D-glucose (adjusted to pH 7.4 with NaOH). After loading, cells were washed with HBS and mounted in an imaging chamber. All recordings were performed in HBS. Ca^2+ imaging was performed using a Leica DMi8 live cell microscope. Fura-2 was excited at 340 nm/380 nm. Emitted fluorescence was captured using 515 nm long-pass filter. Compounds were pre diluted in DMSO and stored as 10 mM stock solutions at − 20 °C, not exceeding three months. Working solutions were prepared directly before using by dilution with HBS.

human ERα = target: T3, human ERα (Homo sapiens, UniProt P03372); assay: Yeast estrogen receptor assay (YES-assay), Saccharomyces cerevisiae transfected with human ERα, lacZ reporter; conditions: 0.01-100 µM, 48 h
T3 construct: host or cells: Saccharomyces cerevisiae
Protocol: The yeast estrogen receptor assay (YES-assay) was provided by Dr. J.P. Sumpter (Brunel University, Uxbridge, UK; Routledge & Sumpter, 1996) and was used to determine the relative transactivation activity of the human ERα in response to test substances as previously described. Briefly, Saccharomyces cerevisiae stably transfected with a human ERα construct and an estrogen responsive element fused to the reporter gene lacZ encoding for β-galactosidase were treated with the test substances for 48 h. The β-galactosidase enzymatic activity was measured in a colorimetric assay using the substrate chlorophenol red β-D-galactopyranoside (Roche Diagnostics, Mannheim Germany). Formation of chlorophenol red was measured at 540 nm. For the test, all compounds were diluted in DMSO. 17β-estradiol (10 nM; Sigma, Deisenhofen, Germany) served as positive control and DMSO was used as vehicle control. All compounds, were dose dependently tested in a concentration range of 0.01–100 µM, using technical quadruplicates and biological triplicates.

TRPML1 = target: T4, TRPML1 (Mus musculus, UniProt Q99J21); assay: Endolysosomal patch-clamp, murine alveolar macrophages endogenously expressing TRPML1; conditions: EDME 10 µM, ML-SA1 10 µM
T4 construct: TRPML1 endogenously expressed in mouse alveolar macrophages; endogenous in cells; host or cells: primary murine alveolar macrophages
Protocol: For whole-LE/LY manual patch-clamp recordings, cells were treated with 1 μM vacuolin-1 (> 2 h) at 37 °C and 5% CO2 and experiments performed as described previously[19],[25]. Compound was washed out before patch-clamp experimentation. Currents were recorded using an EPC-10 patch-clamp amplifier (HEKA, Lambrecht, Germany) and PatchMaster acquisition software (https://www.heka.com/). Data were digitized at 40 kHz and filtered at 2.8 kHz. Fast and slow capacitive transients were cancelled by the compensation circuit of the EPC-10 amplifier. All recordings were obtained at room temperature and were analyzed using PatchMaster acquisition software (https://www.heka.com/) and OriginPro 6.1 (https://www.originlab.com/). […] For all experiments, salt-agar bridges were used to connect the reference Ag–AgCl wire to the bath solution to minimize voltage offsets. Liquid junction potential was corrected. For the application of the small molecule inhibitors/flavonoids, cytoplasmic solution was completely exchanged by cytoplasmic solution containing compound. The current amplitudes at − 100 mV were extracted from individual ramp current recordings. Unless otherwise stated, cytoplasmic solution contained 140 mM K-MSA, 5 mM KOH, 4 mM NaCl, 0.39 mM CaCl2, 1 mM EGTA and 10 mM HEPES (pH was adjusted with KOH to 7.2). […]

[1] = TRPML2 IC50, Fluo-4, 5 µM ML-SA1, Table S1

T3 sequence (P03372 whole entry): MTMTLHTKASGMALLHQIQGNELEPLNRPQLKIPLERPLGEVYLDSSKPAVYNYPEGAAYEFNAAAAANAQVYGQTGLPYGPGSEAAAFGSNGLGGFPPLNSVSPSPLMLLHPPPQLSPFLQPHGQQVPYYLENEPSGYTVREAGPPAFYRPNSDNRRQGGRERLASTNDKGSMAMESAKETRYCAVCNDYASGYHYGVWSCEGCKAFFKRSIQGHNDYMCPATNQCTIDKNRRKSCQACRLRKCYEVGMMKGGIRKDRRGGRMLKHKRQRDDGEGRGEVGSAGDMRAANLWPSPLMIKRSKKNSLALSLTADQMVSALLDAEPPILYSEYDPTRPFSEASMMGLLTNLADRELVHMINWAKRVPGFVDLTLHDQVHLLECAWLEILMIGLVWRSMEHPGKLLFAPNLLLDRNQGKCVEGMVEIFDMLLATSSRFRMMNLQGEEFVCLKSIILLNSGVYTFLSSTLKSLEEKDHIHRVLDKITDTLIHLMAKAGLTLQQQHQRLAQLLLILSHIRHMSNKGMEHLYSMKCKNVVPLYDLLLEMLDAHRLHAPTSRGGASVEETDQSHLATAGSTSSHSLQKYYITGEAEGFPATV
T2 sequence (Q8NHX9 whole entry L11A/L12A): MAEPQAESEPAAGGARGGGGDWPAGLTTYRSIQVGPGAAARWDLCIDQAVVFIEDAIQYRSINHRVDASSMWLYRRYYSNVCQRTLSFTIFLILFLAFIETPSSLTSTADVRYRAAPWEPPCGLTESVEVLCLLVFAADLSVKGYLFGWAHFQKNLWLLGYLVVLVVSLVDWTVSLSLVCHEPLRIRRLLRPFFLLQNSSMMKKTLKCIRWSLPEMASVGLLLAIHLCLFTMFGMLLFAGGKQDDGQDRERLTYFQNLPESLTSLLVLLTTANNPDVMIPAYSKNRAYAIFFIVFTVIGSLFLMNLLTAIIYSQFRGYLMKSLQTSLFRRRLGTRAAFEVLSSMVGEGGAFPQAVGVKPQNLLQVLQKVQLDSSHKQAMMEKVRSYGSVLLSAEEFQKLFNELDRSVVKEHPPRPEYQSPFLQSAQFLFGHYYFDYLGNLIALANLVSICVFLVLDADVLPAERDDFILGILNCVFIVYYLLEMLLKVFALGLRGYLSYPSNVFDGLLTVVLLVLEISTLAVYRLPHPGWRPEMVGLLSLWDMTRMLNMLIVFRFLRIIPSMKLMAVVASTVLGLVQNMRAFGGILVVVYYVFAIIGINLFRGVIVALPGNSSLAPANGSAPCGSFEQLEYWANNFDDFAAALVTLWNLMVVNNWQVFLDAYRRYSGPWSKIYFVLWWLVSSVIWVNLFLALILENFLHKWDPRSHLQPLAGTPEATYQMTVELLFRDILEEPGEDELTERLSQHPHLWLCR
T4 sequence (Q99J21 whole entry): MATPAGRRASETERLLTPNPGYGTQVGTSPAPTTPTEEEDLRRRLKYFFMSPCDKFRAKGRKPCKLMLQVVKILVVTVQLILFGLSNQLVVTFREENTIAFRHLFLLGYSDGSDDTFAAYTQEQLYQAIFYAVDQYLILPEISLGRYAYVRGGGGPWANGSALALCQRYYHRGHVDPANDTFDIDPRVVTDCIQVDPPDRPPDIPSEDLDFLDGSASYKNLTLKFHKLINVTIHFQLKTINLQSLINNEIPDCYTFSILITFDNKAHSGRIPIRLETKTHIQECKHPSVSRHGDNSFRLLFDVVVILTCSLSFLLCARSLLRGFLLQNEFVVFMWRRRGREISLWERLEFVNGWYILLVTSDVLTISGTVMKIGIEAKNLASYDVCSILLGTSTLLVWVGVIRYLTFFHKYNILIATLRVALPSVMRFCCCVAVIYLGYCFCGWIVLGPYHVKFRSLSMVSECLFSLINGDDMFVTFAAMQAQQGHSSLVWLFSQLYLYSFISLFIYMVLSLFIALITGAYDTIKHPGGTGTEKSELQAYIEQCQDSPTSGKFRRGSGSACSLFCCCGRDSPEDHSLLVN

SMILES	IC50 (hTRPML2-YFP; [1]) [µM]	effect on hTPC2, Fura-2 (hTPC2L11A/L12A-RFP)	effect/efficacy at ERα (human ERα)	IC50 (hTRPML2-YFP; Fluo-4, 5 µM ML-SA1, Table S1, read-out: TRPML2 IC50)	inhibition of endogenous TRPML1 in alveolar macrophages (TRPML1)
CC(=O)c1ccc2c(c1)CC[C@@H]1[C@@H]2CC[C@]2(C)[C@@H](O)CC[C@@H]12 [PRU-12]	5.28	Neither an activating nor a blocking effect	relatively low efficacy; also recorded: weakest effects		
COc1ccc2c(c1)CC[C@@H]1[C@@H]2CC[C@]2(C)[C@@H](O)CC[C@@H]12 [EDME, 17β-estradiol methyl ether]			comparably strong effects	5.85 µM and 5.9 µM	inhibition of TRPML1 activation
C=Cc1ccc2c(c1)CC[C@@H]1[C@@H]2CC[C@]2(C)[C@@H](O)CC[C@@H]12 [PRU-10]	5.4	Neither an activating nor a blocking effect	relatively low efficacy; also recorded: weakest effects		
